Data published in PMC11822212, “High-throughput screening identifies Aurora kinase B as a critical therapeutic target for Merkel cell carcinoma” (Nature Communications, 2025).
Counter-ions that a name gives are not always drawn.

Key:
[1] = system: MKL-2 cells (VP-MCC); assay: qHTS cell viability (CellTiter-Glo, 72 h; primary and follow-up small molecule screen); assay type: cell-based, human
[2] = system: HEK293T cells; assay: qHTS cell viability (CellTiter-Glo, 72 h; primary screen), control cell line; assay type: cell-based, human
[3] = system: NIH-3T3 cells; assay: as above; assay type: cell-based, mouse
[4] = system: six MCC cell lines and four control cell lines; assay: qHTS cell viability, all 10 cell lines screened; assay type: cell-based
[5] = system: HACAT cells; assay: qHTS cell viability (CellTiter-Glo, 72 h; primary screen), control cell line; assay type: cell-based, human
[6] = system: MCC26 cells (VN-MCC); assay: qHTS cell viability (CellTiter-Glo, 72 h; primary and follow-up small molecule screen); assay type: cell-based, human
[7] = system: CRL-7250 cells; assay: qHTS cell viability (CellTiter-Glo, 72 h; primary screen), control cell line; assay type: cell-based
[8] = system: control cell lines (HACAT, HEK293T, CRL-7250, NIH-3T3); assay: qHTS cell viability, control cell lines as a group (mean AUC, Control.avg); assay type: cell-based; details: mean AUC of control cell lines
[9] = system: VP-MCC cell lines (WAGA, MKL-1, MKL-2); assay: qHTS cell viability, VP-MCC cell lines as a group (mean AUC, VP.MCC.avg); assay type: cell-based, human; details: for VP-MCC_Avg_AUC: mean AUC of VP-MCC cell lines
[10] = system: MCC cell lines (WAGA, MKL-1, MKL-2, MCC13, MCC26, UISO); assay: qHTS cell viability, all six MCC cell lines as a group (mean AUC, MCC.avg); assay type: cell-based, human; details: mean AUC of six MCC cell lines
[11] = system: MCC13 cells (VN-MCC); assay: qHTS cell viability (CellTiter-Glo, 72 h; primary and follow-up small molecule screen); assay type: cell-based, human; details: MIPE library, 11-point DRC
[12] = system: UISO cells (VN-MCC); assay: as above; assay type: cell-based, human
[13] = system: MKL-1 cells (VP-MCC); assay: as above; assay type: cell-based, human
[14] = system: WAGA cells (VP-MCC); assay: as above; assay type: cell-based, human
[15] = system: VN-MCC cell lines (MCC13, MCC26, UISO); assay: qHTS cell viability, VN-MCC cell lines as a group (mean AUC, VN.MCC.avg); assay type: cell-based, human; details: for VN-MCC_Avg_AUC: mean AUC of VN-MCC cell lines
[16] = MIPE library, 11-point DRC, sheet S2D
[17] = MIPE library, 11-point DRC, sheet S2E
[18] = MIPE library, 11-point DRC, control cell line, sheet S2D
[19] = MIPE library, 11-point DRC, control cell line, sheet S2E
[20] = MIPE library, Control AUC minus MCC AUC (therapeutic window), sheet S2D
[21] = MIPE library, Control AUC minus MCC AUC (therapeutic window), sheet S2E
[22] = MIPE library, Control AUC minus VP-MCC AUC (therapeutic window), sheet S2D
[23] = MIPE library, Control AUC minus VP-MCC AUC (therapeutic window), sheet S2E
[24] = MIPE library, Control AUC minus VN-MCC AUC (therapeutic window), sheet S2D
[25] = MIPE library, Control AUC minus VN-MCC AUC (therapeutic window), sheet S2E

CC[C@@]1(O)C(=O)OCc2c1cc1n(c2=O)Cc2cc3c(CN(C)C)c(O)ccc3nc2-1 [Topotecan HCl]
MKL2_AUC [1, 16]: 250.703 | MKL2_AUC [1, 17]: 250.703 | MKL2_AUC ([1]; NPC library, qHTS dose-response AUC, MKL2): 174.677 | Area under the dose-response curve (AUC) MKL-2 Replicate 1 ([1]; follow-up screen, MKL-2, replicate 1): 184.1 | Area under the dose-response curve (AUC) MKL-2 Replicate 2 ([1]; follow-up screen, MKL-2, replicate 2): 181.9 | Area under the dose-response curve (AUC) MKL-2 Replicate 3 ([1]; follow-up screen, MKL-2, replicate 3): 262.9 | HEK293T_AUC [2, 18]: 287.732 | HEK293T_AUC [2, 19]: 287.732 | HEK293T_AUC ([2]; NPC library, qHTS dose-response AUC, HEK293T control): 225.562 | NIH3T3_AUC [3, 18]: 368.835 | NIH3T3_AUC [3, 19]: 368.835 | NIH3T3_AUC ([3]; NPC library, qHTS dose-response AUC, NIH3T3 control): 374.778 | Control-MCC [4, 20]: 77.6607 | Control-MCC [4, 21]: 77.6607 | Control-MCC ([4]; NPC library, therapeutic window: Control avg AUC minus MCC avg AUC): 81.3959 | HACAT_AUC [5, 18]: 331.992 | HACAT_AUC [5, 19]: 331.992 | HACAT_AUC ([5]; NPC library, qHTS dose-response AUC, HACAT control): 242.195 | MCC26_AUC [6, 16]: 328.226 | MCC26_AUC [6, 17]: 328.226 | MCC26_AUC ([6]; NPC library, qHTS dose-response AUC, MCC26): 267.734 | Area under the dose-response curve (AUC) MCC26 Replicate 1 ([6]; follow-up screen, MCC26, replicate 1): 273.0 | Area under the dose-response curve (AUC) MCC26 Replicate 2 ([6]; follow-up screen, MCC26, replicate 2): 257.6 | Area under the dose-response curve (AUC) MCC26 Replicate 3 ([6]; follow-up screen, MCC26, replicate 3): 280.5 | CRL7250_AUC [7, 18]: 391.937 | CRL7250_AUC [7, 19]: 391.937 | CRL7250_AUC ([7]; NPC library, qHTS dose-response AUC, CRL7250 control): 360.108 | Control_Avg_AUC ([8]; MIPE library, sheet S2D): 345.124 | Control_Avg_AUC ([8]; MIPE library, sheet S2E): 345.124 | Control_Avg_AUC ([8]; NPC library): 300.661 | Control-VP-MCC [9, 22]: 112.898 | Control-VP-MCC [9, 23]: 112.898 | VP-MCC_Avg_AUC ([9]; MIPE library, sheet S2D): 232.226 | VP-MCC_Avg_AUC ([9]; MIPE library, sheet S2E): 232.226 | VP-MCC_Avg_AUC ([9]; NPC library): 166.29 | Control-VP-MCC ([9]; NPC library, therapeutic window: Control avg AUC minus VP-MCC avg AUC): 134.37 | MCC_Avg_AUC ([10]; MIPE library, sheet S2D): 267.463 | MCC_Avg_AUC ([10]; MIPE library, sheet S2E): 267.463 | MCC_Avg_AUC ([10]; NPC library): 219.265 | MCC13_AUC ([11]; sheet S2D): 336.51 | MCC13_AUC ([11]; sheet S2E): 336.51 | UISO_AUC [12, 16]: 243.367 | UISO_AUC [12, 17]: 243.367 | UISO_AUC ([12]; NPC library, qHTS dose-response AUC, UISO): 244.938 | Area under the dose-response curve (AUC) UISO Replicate 1 ([12]; follow-up screen, UISO, replicate 1): 203.8 | Area under the dose-response curve (AUC) UISO Replicate 2 ([12]; follow-up screen, UISO, replicate 2): 226.9 | Area under the dose-response curve (AUC) UISO Replicate 3 ([12]; follow-up screen, UISO, replicate 3): 223.1 | MKL1_AUC [13, 16]: 269.988 | MKL1_AUC [13, 17]: 269.988 | MKL1_AUC ([13]; NPC library, qHTS dose-response AUC, MKL1): 185.429 | Area under the dose-response curve (AUC) MKL-1 Replicate 1 ([13]; follow-up screen, MKL-1, replicate 1): 222.0 | Area under the dose-response curve (AUC) MKL-1 Replicate 2 ([13]; follow-up screen, MKL-1, replicate 2): 224.3 | Area under the dose-response curve (AUC) MKL-1 Replicate 3 ([13]; follow-up screen, MKL-1, replicate 3): 226.9 | WAGA_AUC [14, 16]: 175.987 | WAGA_AUC [14, 17]: 175.987 | WAGA_AUC ([14]; NPC library, qHTS dose-response AUC, WAGA): 138.765 | Area under the dose-response curve (AUC) WAGA Replicate 1 ([14]; follow-up screen, WAGA, replicate 1): 206.9 | Area under the dose-response curve (AUC) WAGA Replicate 2 ([14]; follow-up screen, WAGA, replicate 2): 188.0 | Area under the dose-response curve (AUC) WAGA Replicate 3 ([14]; follow-up screen, WAGA, replicate 3): 185.4 | Control-VN-MCC [15, 24]: 42.4232 | Control-VN-MCC [15, 25]: 42.4232 | VN-MCC_Avg_AUC ([15]; MIPE library, sheet S2D): 302.701 | VN-MCC_Avg_AUC ([15]; MIPE library, sheet S2E): 302.701 | VN-MCC_Avg_AUC ([15]; NPC library): 272.239 | Control-VN-MCC ([15]; NPC library, therapeutic window: Control avg AUC minus VN-MCC avg AUC): 28.4215

C=Cc1c(C)c2cc3nc(cc4[nH]c(cc5nc(cc1[nH]2)C(C)=C5CCC(=O)O)c(CCC(=O)OC)c4C)[C@@]1(C)C3=CC=C(C(=O)OC)[C@H]1C(=O)OC [Verteporfin]
MKL2_AUC [1, 16]: 217.219 | MKL2_AUC [1, 17]: 217.219 | HEK293T_AUC [2, 18]: 435.497 | HEK293T_AUC [2, 19]: 435.497 | NIH3T3_AUC [3, 18]: 474.512 | NIH3T3_AUC [3, 19]: 474.512 | Control-MCC [4, 20]: 151.157 | Control-MCC [4, 21]: 151.157 | HACAT_AUC [5, 18]: 478.04 | HACAT_AUC [5, 19]: 478.04 | MCC26_AUC [6, 16]: 397.153 | MCC26_AUC [6, 17]: 397.153 | CRL7250_AUC [7, 18]: 465.081 | CRL7250_AUC [7, 19]: 465.081 | Control_Avg_AUC ([8]; MIPE library, sheet S2D): 463.283 | Control_Avg_AUC ([8]; MIPE library, sheet S2E): 463.283 | Control-VP-MCC [9, 22]: 208.806 | Control-VP-MCC [9, 23]: 208.806 | VP-MCC_Avg_AUC ([9]; MIPE library, sheet S2D): 254.477 | VP-MCC_Avg_AUC ([9]; MIPE library, sheet S2E): 254.477 | MCC_Avg_AUC ([10]; MIPE library, sheet S2D): 312.125 | MCC_Avg_AUC ([10]; MIPE library, sheet S2E): 312.125 | MCC13_AUC ([11]; sheet S2D): 440.785 | MCC13_AUC ([11]; sheet S2E): 440.785 | UISO_AUC [12, 16]: 271.383 | UISO_AUC [12, 17]: 271.383 | MKL1_AUC [13, 16]: 279.212 | MKL1_AUC [13, 17]: 279.212 | WAGA_AUC [14, 16]: 266.998 | WAGA_AUC [14, 17]: 266.998 | Control-VN-MCC [15, 24]: 93.5089 | Control-VN-MCC [15, 25]: 93.5089 | VN-MCC_Avg_AUC ([15]; MIPE library, sheet S2D): 369.774 | VN-MCC_Avg_AUC ([15]; MIPE library, sheet S2E): 369.774
